Assay results from ChEMBL document CHEMBL1127896, “Synthesis and pharmacological characterization of ABT-200: a putative novel antidepressant combining potent -2 antagonism with moderate NE uptake inhibition” (Bioorg Med Chem Lett, 1994).

Key:
[1] = target: T1, Adrenergic receptor alpha-1 (Rattus norvegicus, UniProt P15823+P23944+P43140); assay: In vitro binding affinity at Alpha-1 adrenergic receptor by radioligand binding assay using [3H]prazosin; assay type: protein assay
T1 sequence (P15823 whole entry): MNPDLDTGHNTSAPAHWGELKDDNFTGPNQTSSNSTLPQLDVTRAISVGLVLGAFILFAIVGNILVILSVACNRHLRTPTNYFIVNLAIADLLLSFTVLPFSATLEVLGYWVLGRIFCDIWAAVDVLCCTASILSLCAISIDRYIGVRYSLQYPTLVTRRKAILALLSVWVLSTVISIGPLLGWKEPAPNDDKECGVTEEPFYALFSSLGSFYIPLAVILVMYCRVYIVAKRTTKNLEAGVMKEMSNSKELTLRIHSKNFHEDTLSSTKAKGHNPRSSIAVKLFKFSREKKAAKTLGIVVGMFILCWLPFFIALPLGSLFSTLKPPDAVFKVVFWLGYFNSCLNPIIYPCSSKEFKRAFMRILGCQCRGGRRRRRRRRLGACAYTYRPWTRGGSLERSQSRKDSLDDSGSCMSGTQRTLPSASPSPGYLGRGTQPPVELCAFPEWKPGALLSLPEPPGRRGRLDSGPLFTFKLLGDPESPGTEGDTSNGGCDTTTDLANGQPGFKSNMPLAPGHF
T1 sequence (P23944 whole entry): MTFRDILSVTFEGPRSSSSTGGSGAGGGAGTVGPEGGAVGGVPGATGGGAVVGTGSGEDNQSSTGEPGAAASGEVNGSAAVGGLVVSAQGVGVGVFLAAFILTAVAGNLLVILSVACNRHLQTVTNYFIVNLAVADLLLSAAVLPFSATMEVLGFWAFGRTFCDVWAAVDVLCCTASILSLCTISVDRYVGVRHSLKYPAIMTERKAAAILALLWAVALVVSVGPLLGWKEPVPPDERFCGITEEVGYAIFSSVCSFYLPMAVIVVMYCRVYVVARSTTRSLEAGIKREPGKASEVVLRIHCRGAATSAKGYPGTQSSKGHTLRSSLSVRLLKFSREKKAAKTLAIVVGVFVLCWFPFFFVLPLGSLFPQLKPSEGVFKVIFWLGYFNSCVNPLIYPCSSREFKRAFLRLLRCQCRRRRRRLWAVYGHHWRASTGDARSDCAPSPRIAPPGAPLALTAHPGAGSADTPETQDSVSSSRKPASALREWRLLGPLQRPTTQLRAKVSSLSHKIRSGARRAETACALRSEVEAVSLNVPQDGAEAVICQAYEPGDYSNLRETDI
T1 sequence (P43140 whole entry): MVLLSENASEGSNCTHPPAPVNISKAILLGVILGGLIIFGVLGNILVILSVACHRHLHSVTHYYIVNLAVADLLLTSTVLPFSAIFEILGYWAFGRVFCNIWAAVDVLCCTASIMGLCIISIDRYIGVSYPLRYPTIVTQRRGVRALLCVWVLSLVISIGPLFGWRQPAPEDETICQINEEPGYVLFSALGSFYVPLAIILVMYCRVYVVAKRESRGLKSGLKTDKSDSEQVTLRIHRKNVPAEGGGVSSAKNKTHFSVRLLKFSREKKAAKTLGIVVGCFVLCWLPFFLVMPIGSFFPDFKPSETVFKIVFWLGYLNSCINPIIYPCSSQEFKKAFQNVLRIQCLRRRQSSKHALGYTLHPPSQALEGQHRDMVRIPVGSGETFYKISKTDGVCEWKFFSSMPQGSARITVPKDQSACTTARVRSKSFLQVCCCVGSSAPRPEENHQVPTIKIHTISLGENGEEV

[2] = target: T2, Adrenergic receptor alpha-2 (Rattus norvegicus, UniProt P22086+P19328+P22909); assay: Evaluated for its presynaptic Alpha-2 adrenergic receptor antagonistic activity against rat vas deferens using clonidine as the control expressed as slope; assay type: functional, tissue-based
T2 sequence (P22086 whole entry): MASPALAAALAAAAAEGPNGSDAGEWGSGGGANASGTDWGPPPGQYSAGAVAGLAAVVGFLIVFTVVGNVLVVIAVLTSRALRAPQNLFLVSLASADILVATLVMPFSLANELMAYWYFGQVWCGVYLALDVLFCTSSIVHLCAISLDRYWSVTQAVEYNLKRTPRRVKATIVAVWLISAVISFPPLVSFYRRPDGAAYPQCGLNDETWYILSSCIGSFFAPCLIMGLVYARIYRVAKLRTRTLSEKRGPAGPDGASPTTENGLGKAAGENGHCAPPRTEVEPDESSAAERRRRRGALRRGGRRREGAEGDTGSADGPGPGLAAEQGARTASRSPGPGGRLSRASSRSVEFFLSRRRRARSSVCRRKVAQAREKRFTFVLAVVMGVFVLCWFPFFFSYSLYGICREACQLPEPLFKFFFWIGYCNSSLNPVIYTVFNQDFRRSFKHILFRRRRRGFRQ
T2 sequence (P19328 whole entry): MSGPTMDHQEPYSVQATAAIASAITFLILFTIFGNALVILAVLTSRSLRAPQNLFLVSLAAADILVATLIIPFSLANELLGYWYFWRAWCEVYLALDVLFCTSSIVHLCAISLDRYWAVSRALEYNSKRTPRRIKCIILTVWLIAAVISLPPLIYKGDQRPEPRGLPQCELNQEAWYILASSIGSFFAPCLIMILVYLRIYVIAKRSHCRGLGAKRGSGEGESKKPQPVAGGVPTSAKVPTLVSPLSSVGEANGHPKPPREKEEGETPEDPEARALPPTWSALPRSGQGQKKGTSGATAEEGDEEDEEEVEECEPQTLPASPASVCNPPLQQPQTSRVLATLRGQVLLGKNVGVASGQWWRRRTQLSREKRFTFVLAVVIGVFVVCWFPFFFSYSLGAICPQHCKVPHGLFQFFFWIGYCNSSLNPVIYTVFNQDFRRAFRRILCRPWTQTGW
T2 sequence (P22909 whole entry): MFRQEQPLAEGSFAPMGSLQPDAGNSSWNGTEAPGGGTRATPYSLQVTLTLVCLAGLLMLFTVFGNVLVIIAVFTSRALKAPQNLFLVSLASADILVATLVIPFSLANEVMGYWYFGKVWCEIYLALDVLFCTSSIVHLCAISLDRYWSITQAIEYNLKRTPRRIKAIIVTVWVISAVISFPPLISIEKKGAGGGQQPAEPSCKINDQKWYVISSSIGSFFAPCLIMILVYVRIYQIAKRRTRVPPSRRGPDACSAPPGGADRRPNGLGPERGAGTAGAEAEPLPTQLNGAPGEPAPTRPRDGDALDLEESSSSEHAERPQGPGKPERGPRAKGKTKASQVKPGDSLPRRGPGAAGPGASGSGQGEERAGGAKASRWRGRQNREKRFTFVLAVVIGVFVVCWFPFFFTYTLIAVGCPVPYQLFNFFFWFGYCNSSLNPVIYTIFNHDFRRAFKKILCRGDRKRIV

[3] = species on record: Rattus norvegicus; assay: Concentration required for its norepinephrine reuptake inhibitory activity in synaptosomal rat hyphalamic preparations; assay type: functional
[4] = target: T2, Adrenergic receptor alpha-2; assay: In vitro binding affinity at Alpha-2 adrenergic receptor in rat cortex by radioligand binding assay using [3H]rauwolscine

SMILES | Ki [1] [nM] | pA2 [2] | IC50 [3] [nM] | Ki [4] [nM] | IC50 ([3]; Rattus norvegicus) [nM]
c1ccc(C2CCN(CC3CCCc4c3ccc3c4OCO3)C2)cc1 (stereo in doubt; 1a/b) | 112 | 7.68 | 841 | 1.23 | –
CN(C)CCCN1c2ccccc2CCc2ccccc21 [IMIPRAMINE] | – | – | – | 255 | 105
c1ccc([C@@H]2CCN(C[C@H]3CCCc4c3ccc3c4OCO3)C2)cc1 | 104 | 6.78 | – | 2.08 | 636
c1ccc([C@H]2CCN(C[C@H]3CCCc4c3ccc3c4OCO3)C2)cc1 | 189 | 6.65 | – | 4.56 | 1450

The remaining lines, values ahead:

Ki [1] [nM] | pA2 [2] | IC50 [3] [nM] | Ki [4] [nM] | IC50 ([3]; Rattus norvegicus) [nM] | SMILES
106 | 7.78 | 3110 | 0.428 | – | c1ccc([C@H]2CCN(C[C@@H]3CCCc4c3ccc3c4OCO3)C2)cc1
75.9 | 7.84 | 1320 | 0.708 | – | c1ccc(C2CCN(CC3CCCc4c3ccc3c4OCO3)C2)cc1 (stereo in doubt; 6a/b)
47.4 | 7.91 | – | 0.5 | 1700 | c1ccc([C@@H]2CCN(C[C@@H]3CCCc4c3ccc3c4OCO3)C2)cc1
